In patent publication US11040031B2, “Pyrazole derivatives as MALT1 inhibitors” (Janssen Pharmaceutica NV, priority 2018, dated 2021) one finds IC50 data, which are given here for 22 molecules.
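Further: fluorogenic LRSR-AMC substrate cleavage by MALT1, 50 min compound preincubation then 4 h reaction at RT, 11-point dilution from 30 µM, scaled between enzyme-free and untreated enzyme controls.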

This experiment deals with T1, full-length MALT1 protein (Strep-MALT1(1-824)-His) (Homo sapiens, UniProt Q9UDY8).
T1 sequence (Q9UDY8 1-824): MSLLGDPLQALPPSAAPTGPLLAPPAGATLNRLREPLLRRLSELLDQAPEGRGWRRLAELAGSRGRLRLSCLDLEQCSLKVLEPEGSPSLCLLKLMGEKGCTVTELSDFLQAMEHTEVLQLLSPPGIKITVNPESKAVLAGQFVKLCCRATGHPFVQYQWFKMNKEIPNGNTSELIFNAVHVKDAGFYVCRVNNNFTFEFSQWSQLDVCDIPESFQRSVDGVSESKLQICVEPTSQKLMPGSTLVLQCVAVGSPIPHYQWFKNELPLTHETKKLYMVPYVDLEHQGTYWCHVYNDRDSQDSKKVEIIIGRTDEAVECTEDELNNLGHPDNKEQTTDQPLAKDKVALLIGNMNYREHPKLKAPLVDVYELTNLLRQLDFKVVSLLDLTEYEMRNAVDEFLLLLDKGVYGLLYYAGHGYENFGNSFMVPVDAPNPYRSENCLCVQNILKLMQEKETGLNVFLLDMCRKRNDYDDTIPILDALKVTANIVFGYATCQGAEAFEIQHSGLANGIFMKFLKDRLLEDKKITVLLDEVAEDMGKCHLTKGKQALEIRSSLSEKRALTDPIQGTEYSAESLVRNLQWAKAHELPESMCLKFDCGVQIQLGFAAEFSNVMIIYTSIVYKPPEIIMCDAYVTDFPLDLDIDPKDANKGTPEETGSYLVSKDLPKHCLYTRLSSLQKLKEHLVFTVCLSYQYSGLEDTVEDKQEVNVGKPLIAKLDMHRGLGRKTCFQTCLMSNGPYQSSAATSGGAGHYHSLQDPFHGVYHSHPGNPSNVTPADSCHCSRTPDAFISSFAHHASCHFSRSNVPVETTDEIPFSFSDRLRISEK
Briefly: biochemical.
Take `Cc1cnc([C@H]2CCCO2)cc1-n1ncc(C(=O)Nc2cnc(-n3nccn3)c(Cl)c2)c1C(F)(F)F` (single isomer, unassigned) [Cpd 203, (*R)—N-(5-chloro-6-(2H-1,2,3-triazol-2-yl)pyridin-3-yl)-1-(5-methyl-2-(tetrahydrofuran-2-yl)pyridin-4-yl)-5-(trifluoromethyl)-1H-pyrazole-4-carboxamide]: the IC50 came out at 158 nM.

Turning to `Cc1cnc([C@@H]2CCCO2)cc1-n1ncc(C(=O)Nc2cnc(-n3nccn3)c(Cl)c2)c1C(F)(F)F` (single isomer, unassigned) [Cpd 204, (*S)—N-(5-chloro-6-(2H-1,2,3-triazol-2-yl)pyridin-3-yl)-1-(5-methyl-2-(tetrahydrofuran-2-yl)pyridin-4-yl)-5-(trifluoromethyl)-1H-pyrazole-4-carboxamide], the IC50 came to 525 nM. In the case of `Cc1cnc([C@H]2COCCO2)cc1-n1ncc(C(=O)Nc2cnc(-n3nccn3)c(Cl)c2)c1C(F)(F)F` (single isomer, unassigned) [Cpd 205, (*S)-1-(2-(1,4-dioxan-2-yl)-5-methylpyridin-4-yl)-N-(5-chloro-6-(2H-1,2,3-triazol-2-yl)pyridin-3-yl)-5-(trifluoromethyl)-1H-pyrazole-4-carboxamide] it was 1910 nM; in that of `Cc1cnc([C@@H]2COCCO2)cc1-n1ncc(C(=O)Nc2cnc(-n3nccn3)c(Cl)c2)c1C(F)(F)F` (single isomer, unassigned) [Cpd 206, (*R)-1-(2-(1,4-dioxan-2-yl)-5-methylpyridin-4-yl)-N-(5-chloro-6-(2H-1,2,3-triazol-2-yl)pyridin-3-yl)-5-(trifluoromethyl)-1H-pyrazole-4-carboxamide], 2040 nM. To `O=C(Nc1cnc(-n2nccn2)c(Cl)c1)c1cnn(-c2ccncc2F)c1C(F)(F)F` [Cpd 6, N-(5-Chloro-6-(2H-1,2,3-triazol-2-yl)pyridin-3-yl)-1-(3-fluoropyridin-4-yl)-5-(trifluoromethyl)-1H-pyrazole-4-carboxamide] belongs 832 nM. To `O=C(Nc1cnc(-n2nccn2)c(Cl)c1)c1cnn(-c2ccccn2)c1C(F)(F)F` [Cpd 8, N-(5-Chloro-6-(2H-1,2,3-triazol-2-yl)pyridin-3-yl)-1-(pyridin-2-yl)-5-(trifluoromethyl)-1H-pyrazole-4-carboxamide] belongs 1230 nM.

`O=C(Nc1cnc(-n2nccn2)c(Cl)c1)c1cnn(-c2cnccn2)c1C(F)(F)F` [Cpd 9, N-(5-Chloro-6-(2H-1,2,3-triazol-2-yl)pyridin-3-yl)-1-(pyrazin-2-yl)-5-(trifluoromethyl)-1H-pyrazole-4-carboxamide]: half-maximal inhibition (IC50) was put at 2570 nM. In the case of `O=C(Nc1cnc(-n2nccn2)c(Cl)c1)c1cnn(-c2ncccn2)c1C(F)(F)F` [Cpd 10, N-(5-Chloro-6-(2H-1,2,3-triazol-2-yl)pyridin-3-yl)-1-(pyrimidin-2-yl)-5-(trifluoromethyl)-1H-pyrazole-4-carboxamide] it was 4370 nM; in that of `N#Cc1ccc(-n2ncc(C(=O)Nc3cnc(-n4nccn4)c(Cl)c3)c2C(F)(F)F)nc1` [Cpd 11, N-(5-Chloro-6-(2H-1,2,3-triazol-2-yl)pyridin-3-yl)-1-(5-cyanopyridin-2-yl)-5-(trifluoromethyl)-1H-pyrazole-4-carboxamide], 4570 nM. To `O=C(Nc1cnc(-n2nccn2)c(Cl)c1)c1cnn(-c2cccnc2)c1C(F)(F)F` [Cpd 12, N-(5-Chloro-6-(2H-1,2,3-triazol-2-yl)pyridin-3-yl)-1-(pyridin-3-yl)-5-(trifluoromethyl)-1H-pyrazole-4-carboxamide] belongs 1350 nM; to `COc1ccc(-n2ncc(C(=O)Nc3cnc(-n4nccn4)c(Cl)c3)c2C(F)(F)F)cn1` [Cpd 13, N-(5-Chloro-6-(2H-1,2,3-triazol-2-yl)pyridin-3-yl)-1-(6-methoxypyridin-3-yl)-5-(trifluoromethyl)-1H-pyrazole-4-carboxamide], 1700 nM; to `O=C(Nc1cnc(-n2nccn2)c(Cl)c1)c1cnn(-c2cncnc2)c1C(F)(F)F` [Cpd 15, N-(5-Chloro-6-(2H-1,2,3-triazol-2-yl)pyridin-3-yl)-1-(pyrimidin-5-yl)-5-(trifluoromethyl)-1H-pyrazole-4-carboxamide], 3470 nM.

Turning to `Cc1cncc(-n2ncc(C(=O)Nc3cnc(-n4nccn4)c(Cl)c3)c2C(F)(F)F)c1` [Cpd 16, N-(5-Chloro-6-(2H-1,2,3-triazol-2-yl)pyridin-3-yl)-1-(5-methylpyridin-3-yl)-5-(trifluoromethyl)-1H-pyrazole-4-carboxamide], the IC50 worked out at 1700 nM. With `N#Cc1cncc(-n2ncc(C(=O)Nc3cnc(-n4nccn4)c(Cl)c3)c2C(F)(F)F)c1` [Cpd 17, N-(5-Chloro-6-(2H-1,2,3-triazol-2-yl)pyridin-3-yl)-1-(5-cyanopyridin-3-yl)-5-(trifluoromethyl)-1H-pyrazole-4-carboxamide], it took 2090 nM to reach half-maximal inhibition (IC50).

`Cc1cccc(-n2ncc(C(=O)Nc3cnc(-n4nccn4)c(Cl)c3)c2C(F)(F)F)n1` [Cpd 24, N-(5-chloro-6-(2H-1,2,3-triazol-2-yl)pyridin-3-yl)-1-(6-methylpyridin-2-yl)-5-(trifluoromethyl)-1H-pyrazole-4-carboxamide] had an IC50 of 2090 nM. In the case of `O=C(Nc1cnc(-n2nccn2)c(Cl)c1)c1cnn(-c2ccncc2)c1C(F)F` [Cpd 25, N-(5-chloro-6-(2H-1,2,3-triazol-2-yl)pyridin-3-yl)-5-(difluoromethyl)-1-(pyridin-4-yl)-1H-pyrazole-4-carboxamide] it was 2950 nM. In the case of `O=C(Nc1cnc(-n2nccn2)c(Cl)c1)c1cnn(-c2ccccc2)c1F` [Cpd 26, N-(5-chloro-6-(2H-1,2,3-triazol-2-yl)pyridin-3-yl)-5-fluoro-1-phenyl-1H-pyrazole-4-carboxamide] it was 7080 nM; in that of `Cc1cccc(-n2ncc(C(=O)Nc3cnc(-n4nccn4)c(Cl)c3)c2C(F)(F)F)c1` [Cpd 28, N-(5-chloro-6-(2H-1,2,3-triazol-2-yl)pyridin-3-yl)-1 (m-tolyl)-5-(trifluoromethyl)-1H-pyrazole-4-carboxamide], 2460 nM. Regarding `N#Cc1cc(NC(=O)c2cnn(-c3ncc(Br)cc3Cl)c2C(F)(F)F)cnc1-n1nccn1` [Cpd 30, 1-(5-bromo-3-chloropyridin-2-yl)-N-(5-cyano-6-(2H-1,2,3-triazol-2-yl)pyridin-3-yl)-5-(trifluoromethyl)-1H-pyrazole-4-carboxamide], the IC50 was 708 nM. In the case of `N#Cc1cnc(-n2ncc(C(=O)Nc3cnc(-n4nccn4)c(C#N)c3)c2C(F)(F)F)c(Cl)c1` [Cpd 31, 1-(3-chloro-5-cyanopyridin-2-yl)-N-(5-cyano-6-(2H-1,2,3-triazol-2-yl)pyridin-3-yl)-5-(trifluoromethyl)-1H-pyrazole-4-carboxamide] it was 6610 nM; in that of `Cc1nccc(-n2ncc(C(=O)Nc3cnc(-n4nccn4)c(C#N)c3)c2C(F)(F)F)c1C#N` [Cpd 33, 1-(3-Cyano-2-methylpyridin-4-yl)-N-(5-cyano-6-(2H-1,2,3-triazol-2-yl)pyridin-3-yl)-5-(trifluoromethyl)-1H-pyrazole-4-carboxamide], 513 nM. In the case of `N#Cc1cc(NC(=O)c2cnn(-c3ncc(F)cc3C#N)c2C(F)(F)F)cnc1-n1nccn1` [Cpd 35, 1-(3-cyano-5-fluoropyridin-2-yl)-N-(5-cyano-6-(2H-1,2,3-triazol-2-yl)pyridin-3-yl)-5-(trifluoromethyl)-1H-pyrazole-4-carboxamide] it was 2240 nM.
